Results taken from ChEMBL document CHEMBL1201862, “PubChem BioAssay data set” (2004).
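Briefly, cells in 96-well plates were exposed to five compound concentrations for 48 h, and endpoints were estimated by linear interpolation. Abbreviation: GI50, concentration required for 50% inhibition of growth.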 Activity calls are given as the source filed them. Rule as the data show it: active = GI50 up to about 1.1 µM and inactive = higher. Residues, ends and D or L forms follow the SMILES beside them. *: point of attachment. Boc = CC(C)(C)OC(=O)*; OBn = c1ccc(CO*)cc1

Experiments:
Assay in all cases: NCI anticancer screen, dose series, 48 h
BT-549 = system: BT-549
DLD-1 = system: DLD-1
LXFL 529 = system: LXFL 529
XF498 = system: XF498
DMS-114 = system: DMS-114
KM-20L2 = system: KM-20L2
DMS-273 = system: DMS-273
RXF 631 = system: RXF 631
HOP-18 = system: HOP-18

C/C=C/[C@@]1(OC(=O)c2ccccc2)C[C@@H]2CCCC[C@@H]21
GI50 (BT-549): 14.9 µM (inactive)

COc1ccc(CCn2c(=O)c3ccccc3n(C)c2=O)cc1
GI50 (DLD-1): 28.6 µM (inactive)
GI50 (LXFL 529): 26.1 µM (inactive)
GI50 (XF498): 37.2 µM (inactive)
GI50 (DMS-114): 11.2 µM (inactive)
GI50 (KM-20L2): 63.4 µM (inactive)

Cn1c2ccccc2c(=O)c2cccc(C(=O)NCC(=O)O)c21
GI50 (BT-549): > 100 µM (inactive)

COc1cc(C(N)=O)c(OC)c(OC)c1OC
GI50 (DLD-1): > 100 µM (inactive)
GI50 (DMS-273): > 100 µM (inactive)
GI50 (LXFL 529): > 100 µM (inactive)
GI50 (RXF 631): > 100 µM (inactive)
GI50 (DMS-114): > 100 µM (inactive)
GI50 (KM-20L2): > 100 µM (inactive)

O=C(/C=C/c1ccccc1)CCN1CCCCC1
GI50 (BT-549): 47.1 µM (inactive)

NC(=S)N/N=C1\C(=O)N(c2cccc([N+](=O)[O-])c2)C(=O)C1C(=O)Nc1cccc([N+](=O)[O-])c1 (stereo not given)
GI50 (DLD-1): > 100 µM (inactive)
GI50 (HOP-18): 65.3 µM (inactive)
GI50 (DMS-273): > 100 µM (inactive)
GI50 (LXFL 529): > 100 µM (inactive)
GI50 (DMS-114): > 100 µM (inactive)
GI50 (KM-20L2): > 100 µM (inactive)

NNC(=O)CCC(NS(=O)(=O)c1ccc(Cl)cc1)C(=O)NN (stereo not given)
GI50 (BT-549): > 100 µM (inactive)

Nc1c(S(=O)(=O)c2ccc(Cl)cc2)c2nc3ccccc3nc2n2ccnc12
GI50 (DLD-1): > 100 µM (inactive)
GI50 (HOP-18): 22.8 µM (inactive)
GI50 (DMS-273): 82 µM (inactive)
GI50 (LXFL 529): > 100 µM (inactive)
GI50 (XF498): 65.8 µM (inactive)
GI50 (DMS-114): 54 µM (inactive)

CN(C)CC1CCCC/C1=N/O (stereo not given)
GI50 (DLD-1): > 100 µM (inactive)
GI50 (HOP-18): > 100 µM (inactive)
GI50 (DMS-273): > 100 µM (inactive)
GI50 (LXFL 529): > 100 µM (inactive)
GI50 (RXF 631): > 100 µM (inactive)
GI50 (DMS-114): > 100 µM (inactive)
GI50 (KM-20L2): > 100 µM (inactive)

O=c1c2cnccc2cc2c3ccccc3ccn12
GI50 (BT-549): 65.6 µM (inactive)

COc1ccc(Nc2nnc(-c3nsc4ccccc34)s2)cc1
GI50 (HOP-18): 0.0149 µM (active)
GI50 (DMS-273): 47.1 µM (inactive)
GI50 (LXFL 529): > 100 µM (inactive)
GI50 (DMS-114): 59.4 µM (inactive)
GI50 (KM-20L2): > 100 µM (inactive)

COc1nc2ncc([C@@H](O)[C@H](O)CO)nc2c(=O)n1C
GI50 (BT-549): > 100 µM (inactive)

COc1ccc(/N=N/C(=N/NC(=O)c2ccccc2)c2ccc(N(CCC#N)CCC#N)cc2C)cc1
GI50 (BT-549): 52.4 µM (inactive)

Cc1ccc2[nH]c3c(c2c1)CCC/C3=N/N=C(N)N
GI50 (BT-549): 14.5 µM (inactive)

O=C(OCCN=c1c2ccccc2ccc2ccccc12)c1ccc([N+](=O)[O-])cc1
GI50 (BT-549): > 100 µM (inactive)

Cc1ccc2nc(N/N=C/c3sccc3C)cc(C)c2c1
GI50 (BT-549): > 100 µM (inactive)

Cn1cccc1-c1ccc(-c2ccc(CO)[se]2)[se]1
GI50 (BT-549): 20.2 µM (inactive)

CN1CCn2c(Br)ccc2C1=O
GI50 (DLD-1): > 10 µM (inactive)
GI50 (DMS-273): > 100 µM (inactive)
GI50 (LXFL 529): > 100 µM (inactive)
GI50 (XF498): > 100 µM (inactive)
GI50 (KM-20L2): > 100 µM (inactive)

COc1cc(/C=C2/CCCc3ccccc3C2=O)cc(OC)c1OC
GI50 (BT-549): 13.8 µM (inactive)

Cc1ccc(S(=O)(=O)N/N=C2\C3CC4CC(C3)C2C4)cc1 (stereo not given)
GI50 (BT-549): > 100 µM (inactive)

CC(C)(C)OC(=O)NNCC(O)COc1ccccc1 (stereo not given)
GI50 (BT-549): > 100 µM (inactive)

COc1cc(C2SC(=N)Nc3c2c(C)nn3C(=O)Cc2ccccc2)cc(OC)c1OC (stereo not given)
GI50 (BT-549): > 100 µM (inactive)

NNc1ncnc2cccc(Cl)c12
GI50 (BT-549): > 100 µM (inactive)

O=C(Oc1cncc(Cl)c1)c1cc2ccccc2sc1=O
GI50 (BT-549): 57.7 µM (inactive)

N#CC(CCN1CCC(Nc2ccccc2)(c2nnnn2C2CCCCC2)CC1)(c1ccccc1)c1ccccc1
GI50 (BT-549): > 100 µM (inactive)

Cc1ccccc1C(O)(c1nccn1C)c1nccn1C
GI50 (BT-549): > 100 µM (inactive)

CC(=O)OCC1OC(n2c(C)c(/N=N/c3ccc(C)cc3)c(C)c(C#N)c2=S)C(OC(C)=O)C(OC(C)=O)C1OC(C)=O (stereo not given)
GI50 (BT-549): > 100 µM (inactive)

NS(=O)(=O)c1nnc(NSc2ccc([N+](=O)[O-])cc2)s1
GI50 (BT-549): > 100 µM (inactive)

C=C1C2C[C@@H]3O[C@H]4C[C@H]5O[C@@]6(C[C@@H]7O[C@]8(C[C@H](C)[C@@H]9O[C@@H]%10CC(CO)O[C@@H]%10C[C@@H]9O8)C[C@H](C)[C@@H]7O6)C[C@H]5O[C@H]4[C@H](C)[C@H]3OC(=O)C[C@H]3CC[C@@H]4OC5[C@H]6O[C@]7(CC[C@H]8CC(=C)[C@H](CC[C@@H](C[C@H]1C)O2)O8)CC6O[C@@H]5[C@@H](O7)[C@H]4O3 (stereo not given in full)
GI50 (BT-549): < 0.0001 µM (active)

CC1OC(OC2C(OC(=O)[C@]34CCC(C)(C)CC3C3=CCC5[C@@]6(C)C[C@H](O)[C@H](OC7OC(COC8OC(CO)C(O)C(O)C8O)C(O)C(O)C7O)[C@@](C)(C(=O)O)C6CC[C@@]5(C)C3(C)CC4)OCC(O)C2O)C(O)C(O)C1OC1OCC(O)C(O)C1O (stereo not given in full)
GI50 (DLD-1): > 100 µM (inactive)
GI50 (HOP-18): > 100 µM (inactive)
GI50 (DMS-273): > 100 µM (inactive)
GI50 (DMS-114): > 100 µM (inactive)
GI50 (KM-20L2): > 100 µM (inactive)

O=C(Cc1nc2ccccc2c(=O)n1-c1ccccc1Cl)c1ccncc1
GI50 (DLD-1): > 100 µM (inactive)
GI50 (HOP-18): > 100 µM (inactive)
GI50 (DMS-273): > 100 µM (inactive)
GI50 (LXFL 529): > 100 µM (inactive)
GI50 (RXF 631): > 100 µM (inactive)
GI50 (DMS-114): > 100 µM (inactive)
GI50 (KM-20L2): > 100 µM (inactive)

CCN(CC)CCC(=O)/C=C/c1ccccc1
GI50 (BT-549): 6.9 µM (inactive)

CC(NC(=O)CNC(=O)OC(C)(C)C)C(=O)NC(Cc1ccccc1)C(=O)OCc1ccccc1 (stereo not drawn) (Boc-Gly-Ala-Phe-OBn; configuration not given here)
GI50 (BT-549): > 100 µM (inactive)

CC[C@@]1(O)C(=O)OCc2c1cc1n(c2=O)Cc2c-1nc1ccc(O)cc1c2[Si](C)(C)C(C)(C)C [AR-67]
GI50 (BT-549): < 0.0157 µM (active)

CC(C)=CCc1c2c(c3occ(-c4ccc(O)cc4)c(=O)c3c1O)CC(C(C)(C)O)O2 (stereo not given) [SENEGALENSIN]
GI50 (BT-549): 17 µM (inactive)

CCCC(=O)OCC(COC(=O)CCC)OC(=O)CCC [TRIBUTYRIN]
GI50 (BT-549): 97.3 µM (inactive)

Nc1nc(N)c2cc(Sc3cccc(C(F)(F)F)c3)ccc2n1 [WR-159412]
GI50 (BT-549): 6.07 µM (inactive)
